For assay [1], the system named is rat unstripped colonic sheets (enteric nervous system activity).
Assay [2] deals with IP-10. Kind of assay: Serum IP-10 in mdr1a-/- colitis study. Type of assay: in vivo, mouse. Conditions: treatment groups vs vehicle treated animals. How it is done: (§1) All mice were necropsied on day 38 post initial inoculation. Mice were euthanized by CO2 asphyxiation. Blood was obtained by intracardiac puncture and collected in serum separator tubes. Serum was harvested and stored at −80° C. Colons were dissected below the cecum and just above the anus, and the contents of the lumen were removed. Sections of the proximal, middle, and distal colon regions were fixed in 10% neutral buffered formalin for histopathological analysis.
(§2) Serum clinical chemistry analysis was performed on the Olympus AU400 using standard tests and protocols. Calcium and phosphorus measurements were performed on undiluted serum for all samples. Serum cytokines and chemokines were assayed by Lincoplex mouse cytokine/chemokine muliplex immunoassasy (Millipore; Billerica, Mass.) per manufacturer instructions.
(§3) Results for serum analytes were expressed as the mean±standard error of the mean (SEM). A one-way ANOVA with Tukey's post test was performed using GraphPad Prism. A p-value of 0.05 was used in the calculation to determine whether there were significant differences between any two groups. Results for disease onset were expressed as a standard survival curve. A Log-Rank (Mantel-Cox) Test was performed using GraphPad Prism to determine significance. A p-value of 0.05 was used in the calculation to determine whether there were significant differences between any two groups. Results for clinical score and histology score were expressed as the mean±SEM. A Cochran-Mantel-Haenszel mean score test was performed using SAS software. A p-value of 0.05 was used in the calculation to determine whether there were significant differences between any two groups.

Assay [3] deals with colitis in mdr1a-/- mice induced by H. bilis. Kind of assay: Colitis in mdr1a-/- mice infected with Helicobacter bilis (clinical score, disease onset, histology). The format is in vivo, mouse.
Assay [4] is described as follows: Serum calcium and phosphorus in mdr1a-/- colitis study. Type of assay: in vivo, mouse. The conditions noted are these: 10 mg/kg PO daily; day 38. How it is done:
as §1, §2, §3

Assay [5] has as its system 5% DSS induced colitis in SJL/J mice. Nature of the assay: DSS-induced colitis in mice, histopathologic inflammation score of large intestine. Type of assay: in vivo, mouse. Conditions: 5% DSS 9 days, SJL/J mice; oral; Compound B 10 mg/kg, FK 506 1 mg/kg. An excerpt:
Animals. Female SJL/J mice aged 8-10 weeks were used for this study, purchased from Jackson Laboratories (Bar Harbour, Me.). Female Spraque-Dawley rats (approximately 150-300 grams) were purchased from Charles River Laboratories Inc. (Wilmington, Mass.). Mdr1a−/− mice (FVB.129P2-Abcb1a^tm1BorN7), weight 20-21 g, 8 weeks at initiation of experiments, were housed and maintained (5 per cage) in the animal facility at Amgen Washington. All animals were cared for according to the standard protocols of the Amgen Institutional Animal Care and Use Committee.
Chemical reagents. Dextran sodium sulfate (DSS) with molecular mass 36-50 kDa was purchased from ICN Chemicals, Aurora, Ohio. The DSS solution was prepared as a 5% w/v solution in sterile water (Baxter Healthcare Corporation) and sterile filtered through a 0.45 μm filter before being added to drinking water. Water for the negative control groups was similarly filtered. FK506, (also known as Tacrolimus, active ingredient in Prograf®), chemical name [3S-[3R*[E(1S*,3S*,4S*)],4S*,5R*,8S*,9E,12R*,14R*,15S*,16R*,18S*,19S*,26aR*]]-5,6,8,11,12,13,14,15,16,17,18,19,24,25,26,26a-hexadecahydro-5,19-dihydroxy-3-[2-(4-hydroxy-3-methoxycyclohexyl)-1-methylethenyl]-14,16-dimethoxy-4,10,12,18-tetramethyl-8-(2-propenyl)-15,19-epoxy-3H-pyrodi[2,1-c][1,4]oxaazacyclotricosine-1,7,20,21(4H, 23H)-tetrone monohydrate, was used as a positive control for the inflammation treatment. Tacrolimus is a macrolide immunosuppressant produced by Streptomyces tsukubaensis. The solution of FK506 (Prograf®, Astellas) was prepared as follows: 0.1 mg/ml solution in phosphate buffered saline (PBS) was prepared by diluting 5 mg/ml stock solution. The animals were dosed with FK506 at 1 mg/kg in 200 μl of PBS.
Calcimimetic solutions (Compound A, 3-(2-chlorophenyl)-N-((1R)-1-(3-(methyloxy)phenyl)ethyl)-1-propanamine, Compound B, (1R)-N-((6-(methyloxy)-4′-(trifluoromethyl)-3-biphenylyl)methyl)-1-phenylethanamine, Compound C, N-(2-chloro-5-((((1R)-1-phenylethyl)amino)methyl)phenyl)-5-methyl-3-isoxazolecarboxamide, and Compound D, N-(2-chloro-5-((((1R)-1-phenylethyl)amino)methyl)phenyl)-2-pyridinecarboxamide) were formulated and dosed in free base equivalents at volumes determined by the pharmacologist. Formulation vehicle was 20% (w/v) Captisol (β-Cyclodextrin Sulfobutyl Ether Sodium Salt, Research Grade from CyDex, Inc.) in water with a final pH of 2.0-2.2 at room temperature, adjusted with HCl and NaOH as required. Final concentrations of DMSO never exceeded 0.1% (v/v).
DSS colitis in mice. All experiments were performed on groups of 8 to 10 SJL-J mice, housed in the same cage. For disease induction, mice were given a 5% DSS ad libitum as drinking water for 9 days.
Postmortem evaluation. Mice and rats were euthanized by CO2 asphyxiation. The large intestine were removed from the carcass, evaluated for gross lesions and three individual non-adjacent segments of proximal, middle and distal large intestine 2 centimeters long were immersed in the Zinc Formalin fix for 24 hours. At the end of 24 hours the sections were washed with tap water and put into 70% ethanol. Each section was then cut into three 3 mm pieces (9 pieces per animal), processed into paraffin blocks, and sections were cut in 5 μm sections and stained with hematoxylin and eosin.
Histopathologic changes of the proximal, middle, and distal small and large intestine was scored as a global assessment of inflammation based on inflammatory infiltrate, edema, mucosal erosions or ulcerations as described in Table 6.
For disease induction, treated mice were given 5% DSS in water ad libitum as drinking water for 9 days as described in Example 1 and were concurrently treated orally during that period with one of the treatments listed in Table 8.
FIG. 1 and Table 8 summarize the effect of the calcimimetic compound B on colonic inflammation in 5% DSS induced colitis. Animals were euthanized with carbon dioxide on day nine post treatment. […]

[6] abbreviates: Compound A 10 μM, bumetanide 100 μM, proximal and distal colon.
Setting [7] is: 10 mg/kg PO daily, day 38, score 0-4.

Structures are written as SMILES. Where “and” joins values, the source holds several entries; their conditions need not be identical. Equal values may be shown once. Read-outs that look alike come from different tables or passages of the source.

As for `CCCCNc1cc(C(=O)O)cc(S(N)(=O)=O)c1Oc1ccccc1` [bumetanide, Bumetanide], in assay [1] (setting [6]), the “short-circuit current, subsequent addition after 2 μM TTX” value is “no additional effect”. The “short-circuit current, subsequent addition after 10 μM Compound A” value in assay [1] (TTX 2 μM, bumetanide 100 μM, proximal and distal colon) is listed as “no additional effect”.

Turning to `COc1cccc([C@@H](C)NCCCc2ccccc2Cl)c1` [Compound A, 3-(2-chlorophenyl)-N-((1R)-1-(3-(methyloxy)phenyl)ethyl)-1-propanamine], the “short-circuit current, subsequent addition after 2 μM TTX” value in assay [1] (setting [6]) was “no additional effect”. Also, the “secretory short-circuit current, agent added first” value in assay [1] (over 15 minutes, proximal and distal colon, TTX 2 μM, Compound A 10 μM) is “inhibited the secretory short-circuit current”.

For the compound `NC1=N[C@H](O)[C@H]2[C@H]3O[C@]4(O)O[C@@H]([C@@H](O)[C@@]2(N1)[C@@H]4O)[C@]3(O)CO` [TTX, Tetrodotoxin], in assay [1], the “secretory short-circuit current, agent added first” value is listed as “inhibited the secretory short-circuit current” and the “short-circuit current, subsequent addition after 10 μM Compound A” value is recorded as “no additional effect”.

Regarding `COc1ccc(CN[C@@H](C)c2ccccc2)cc1-c1ccc(C(F)(F)F)cc1` [S-Compound B], in assay [2], the “elevation of serum IP-10” value is listed as “less elevation”. Also, in assay [3] (10 mg/kg PO daily), the “day on which animals began showing clinical symptoms (disease onset)” value turned out to be 27 days. In addition, the “number of animals with clinical signs of disease at onset day” value in assay [3] (10 mg/kg PO daily, day 27, n=5) was “two”. For the same compound, in assay [3] (10 mg/kg PO daily, day 38), the “Average LI score” value is reported as 1.8; the “GI Inflammation LI DISTAL, Segment Mean” value is 0.60; the “GI Inflammation LI MIDDLE, Segment Mean” value amounted to 0.60; the “GI Inflammation LI PROXIMAL, Segment Mean” value worked out at 0.60. The “Total LI score (Max = 12), individual animals” value in assay [3] (10 mg/kg PO daily, day 38) was 0 (4×) and 9. Also, in assay [3] (setting [7]), the “GI Inflammation LI DISTAL, individual animals” value was 0 (4×) and 3; the “GI Inflammation LI MIDDLE, individual animals” value is 0 (4×) and 3; the “GI Inflammation LI PROXIMAL, individual animals” value is 0 (4×) and 3. Besides, the “clinical score of the animal with clinical symptoms (max 8)” value in assay [3] (10 mg/kg PO daily, final day) is 4. For the same compound, the “total large intestine (LI) scores of the colitic animals (max 12)” value in assay [3] (R-Compound B 10 and 3 mg/kg groups, S-Compound B 10 mg/kg) turned out to be 9. Moreover, in assay [3] (day 38, per treatment group (S-Compound B 10 mg/kg, n=5; R-Compound B 10 mg/kg and 3 mg/kg, n=10 each)), the “number of animals with clinical symptoms of disease on the final day of the study” value is given as “one”. The “animals with colitis / colon pathology by histology” value in assay [3] (per group: R-Compound B 10 and 3 mg/kg each, S-Compound B 10 mg/kg) is listed as 1 out of 5. In assay [4], the “serum calcium levels compared to any other group” value was “not statistically different” and the “serum phosphorus compared to CTLA4 treated animals” value is listed as “significant reduction”.

Turning to `C=CC[C@@H]1/C=C(\C)C[C@H](C)C[C@H](OC)[C@H]2O[C@@](O)(C(=O)C(=O)N3CCCC[C@H]3C(=O)O[C@H](/C(C)=C/[C@@H]3CC[C@@H](O)[C@H](OC)C3)[C@H](C)[C@@H](O)CC1=O)[C@H](C)C[C@@H]2OC` (relative stereo) [FK 506, [3S-[3R*[E(1S*,3S*,4S*)],4S*,5R*,8S*,9E,12R*,14R*,15S*,16R*,18S*,19S*,26aR*]]-5,6,8,11,12,13,14,15,16,17,18,19,24,25,26,26a-hexadecahydro-5,19-dihydroxy-3-[2-(4-hydroxy-3-methoxycyclohexyl)-1-methylethenyl]-14,16-dimethoxy-4,10,12,18-tetramethyl-8-(2-propenyl)-15,19-epoxy-3H-pyrodi[2,1-c][1,4]oxaazacyclotricosine-1,7,20,21(4H, 23H)-tetrone monohydrate, reference compound], the “Animals with colonic inflammation/total animals” value in assay [5] is given as 10/10.

These data come from patent publication US8093299B2, “Methods of treating bowel disorders” (Amgen Inc., priority 2007, dated 2012).
